Where a name gives a salt, the structure may show the parent alone.
Assays:
Experiment in all cases: Kinase selectivity panel
Assay type in all cases: biochemical
[1] = target: PKCbeta 1 (h) (Homo sapiens (Human), UniProt P05771); conditions: duplicate, read-out: % inhibition of control values, PKCbeta 1 (h)
Experimental: (§1) (a) Compound 1 was tested against a panel of 60 kinases in order to assess its selectivity. The assays were chosen taking into consideration the diversity of assay families.
(§2) Human recombinant kinases were incubated in the presence of specific peptide substrates plus ATP for different times (10, 15, 30, 60 or 90 minutes) at 22° C. Phosphorylated substrate was detected by LANCE or HTRF technology (CISBIO, MA, USA).
(§3) Compound 1 was tested at 10 μM in duplicate.
(§4) The results are expressed as a percent of inhibition of control specific activity obtained in the presence of the test compound 1 and are reported in the following Table 5.
(§5) (b) Compounds 7, 12, 21 and 24 were tested against the same panel of 60 kinases under the same conditions described above for compound 1.
(§6) The results are expressed as a percent of inhibition of control specific activity obtained in the presence of the test compounds and are reported in the following Table 6.

[2] = target: ERK1 (h) (Homo sapiens (Human), UniProt P27361); conditions: duplicate, read-out: % inhibition of control values, ERK1 (h)
Sequence of ERK1 (h) (P27361 whole entry): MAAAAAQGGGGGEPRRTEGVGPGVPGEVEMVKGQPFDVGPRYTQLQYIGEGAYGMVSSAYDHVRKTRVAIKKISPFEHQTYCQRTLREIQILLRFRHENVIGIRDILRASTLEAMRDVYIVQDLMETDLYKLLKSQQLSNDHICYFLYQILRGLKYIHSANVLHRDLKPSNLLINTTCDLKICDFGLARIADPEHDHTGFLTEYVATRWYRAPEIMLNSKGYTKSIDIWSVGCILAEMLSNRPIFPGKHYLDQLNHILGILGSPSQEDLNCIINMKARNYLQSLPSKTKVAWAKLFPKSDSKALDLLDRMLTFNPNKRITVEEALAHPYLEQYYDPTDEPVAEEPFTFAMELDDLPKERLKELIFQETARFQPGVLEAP
Experimental: as §1, §2, §3, §4, §5, §6

[3] = target: CDK5/p35 (h) (Homo sapiens (Human), UniProt Q00535); conditions: duplicate, read-out: % inhibition of control values, CDK5/p35 (h)
Experimental: as §1, §2, §3, §4, §5, §6

[4] = target: FGFR4 kinase (h) (Homo sapiens (Human), UniProt P22455); conditions: duplicate, read-out: % inhibition of control values, FGFR4 kinase (h)
Sequence of FGFR4 kinase (h) (P22455 22-802): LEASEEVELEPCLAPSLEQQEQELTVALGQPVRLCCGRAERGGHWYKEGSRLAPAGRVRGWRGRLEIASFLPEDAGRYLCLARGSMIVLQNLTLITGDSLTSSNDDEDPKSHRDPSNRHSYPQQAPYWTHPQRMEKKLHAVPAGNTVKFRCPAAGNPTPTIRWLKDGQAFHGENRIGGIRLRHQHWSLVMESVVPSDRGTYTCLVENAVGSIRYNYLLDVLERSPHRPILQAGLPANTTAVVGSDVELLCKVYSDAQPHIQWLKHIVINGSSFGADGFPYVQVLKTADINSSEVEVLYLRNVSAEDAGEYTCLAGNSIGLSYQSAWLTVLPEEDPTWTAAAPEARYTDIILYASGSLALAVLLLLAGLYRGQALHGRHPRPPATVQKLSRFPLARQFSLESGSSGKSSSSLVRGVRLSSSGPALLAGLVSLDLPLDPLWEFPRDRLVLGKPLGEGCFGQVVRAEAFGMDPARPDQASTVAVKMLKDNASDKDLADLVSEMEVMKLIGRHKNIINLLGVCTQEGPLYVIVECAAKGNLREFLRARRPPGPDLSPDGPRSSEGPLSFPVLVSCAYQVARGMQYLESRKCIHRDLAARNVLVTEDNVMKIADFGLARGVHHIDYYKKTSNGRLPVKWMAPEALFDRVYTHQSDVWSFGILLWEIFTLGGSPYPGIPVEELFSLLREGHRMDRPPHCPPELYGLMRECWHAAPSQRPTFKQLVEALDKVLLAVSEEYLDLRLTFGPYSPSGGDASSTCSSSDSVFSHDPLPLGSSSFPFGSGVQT
Experimental: as §1, §2, §3, §4, §5, §6

[5] = target: EphB4 kinase (h) (Homo sapiens (Human), UniProt P54760); conditions: duplicate, read-out: % inhibition of control values, EphB4 kinase (h)
Experimental: as §1, §2, §3, §4, §5, §6

[6] = target: IKKepsilon (h) (IKBKE) (Homo sapiens (Human), UniProt Q14164); conditions: duplicate, read-out: % inhibition of control values, IKKepsilon (h) (IKBKE)
Experimental: as §1, §2, §3, §4, §5, §6

[7] = target: Fyn kinase (h) (Homo sapiens (Human), UniProt P06241); conditions: duplicate, read-out: % inhibition of control values, Fyn kinase (h)
Experimental: as §1, §2, §3, §4, §5, §6

[8] = target: Pim2 kinase (h) (Homo sapiens (Human), UniProt Q9P1W9); conditions: duplicate, read-out: % inhibition of control values, Pim2 kinase (h)
Sequence of Pim2 kinase (h) (Q9P1W9 whole entry): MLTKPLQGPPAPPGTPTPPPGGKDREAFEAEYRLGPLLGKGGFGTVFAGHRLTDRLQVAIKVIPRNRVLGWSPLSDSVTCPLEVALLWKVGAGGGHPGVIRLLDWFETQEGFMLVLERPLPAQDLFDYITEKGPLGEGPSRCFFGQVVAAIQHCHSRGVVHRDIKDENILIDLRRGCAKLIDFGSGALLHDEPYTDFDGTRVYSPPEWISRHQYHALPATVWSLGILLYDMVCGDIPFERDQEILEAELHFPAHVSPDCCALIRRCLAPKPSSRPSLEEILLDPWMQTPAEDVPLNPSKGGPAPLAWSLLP
Experimental: as §1, §2, §3, §4, §5, §6

[9] = target: Akt1/PKBalpha (h) (Homo sapiens (Human), UniProt P31749); conditions: duplicate, read-out: % inhibition of control values, Akt1/PKBalpha (h)
Sequence of Akt1/PKBalpha (h) (P31749 whole entry): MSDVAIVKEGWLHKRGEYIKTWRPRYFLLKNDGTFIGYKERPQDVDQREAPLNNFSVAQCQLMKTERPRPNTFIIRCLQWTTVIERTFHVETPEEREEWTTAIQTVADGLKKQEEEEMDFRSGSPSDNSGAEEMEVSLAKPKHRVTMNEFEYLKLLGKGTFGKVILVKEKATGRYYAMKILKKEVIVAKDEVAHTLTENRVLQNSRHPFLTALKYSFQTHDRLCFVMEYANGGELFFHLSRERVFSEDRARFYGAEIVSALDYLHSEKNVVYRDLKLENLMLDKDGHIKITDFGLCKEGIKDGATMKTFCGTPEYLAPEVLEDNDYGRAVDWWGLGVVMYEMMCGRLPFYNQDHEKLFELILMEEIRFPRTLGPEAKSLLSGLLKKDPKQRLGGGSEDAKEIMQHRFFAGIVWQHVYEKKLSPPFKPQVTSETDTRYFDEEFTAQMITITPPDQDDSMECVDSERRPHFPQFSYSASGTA
Experimental: as §1, §2, §3, §4, §5, §6

[10] = target: EphB2 kinase (h) (Homo sapiens (Human), UniProt P29323); conditions: duplicate, read-out: % inhibition of control values, EphB2 kinase (h)
Experimental: as §1, §2, §3, §4, §5, §6

[11] = target: CaMK4 (h) (Homo sapiens (Human), UniProt Q16566); conditions: duplicate, read-out: % inhibition of control values, CaMK4 (h)
Experimental: as §1, §2, §3, §4, §5, §6

[12] = target: IKKalpha (h) (Homo sapiens (Human), UniProt O15111); conditions: duplicate, read-out: % inhibition of control values, IKKalpha (h)
Sequence of IKKalpha (h) (O15111 whole entry): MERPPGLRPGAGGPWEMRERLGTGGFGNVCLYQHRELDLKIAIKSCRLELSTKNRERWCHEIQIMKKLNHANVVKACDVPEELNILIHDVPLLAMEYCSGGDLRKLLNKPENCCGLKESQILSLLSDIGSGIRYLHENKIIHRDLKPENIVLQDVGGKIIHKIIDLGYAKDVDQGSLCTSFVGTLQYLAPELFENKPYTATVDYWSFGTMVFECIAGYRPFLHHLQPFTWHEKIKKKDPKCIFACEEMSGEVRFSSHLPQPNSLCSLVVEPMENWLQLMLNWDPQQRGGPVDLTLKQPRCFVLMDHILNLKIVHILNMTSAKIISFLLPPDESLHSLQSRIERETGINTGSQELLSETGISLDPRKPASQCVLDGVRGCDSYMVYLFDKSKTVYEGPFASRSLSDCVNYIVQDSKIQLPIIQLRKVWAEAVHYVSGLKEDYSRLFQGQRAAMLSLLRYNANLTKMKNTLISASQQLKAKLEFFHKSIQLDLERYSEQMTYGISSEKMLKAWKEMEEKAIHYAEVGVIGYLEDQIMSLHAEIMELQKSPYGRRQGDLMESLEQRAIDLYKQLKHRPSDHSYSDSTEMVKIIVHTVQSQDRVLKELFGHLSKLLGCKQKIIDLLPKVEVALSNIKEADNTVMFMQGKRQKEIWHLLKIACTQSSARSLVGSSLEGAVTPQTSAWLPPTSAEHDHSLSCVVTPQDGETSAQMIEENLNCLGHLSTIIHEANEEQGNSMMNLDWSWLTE
Experimental: as §1, §2, §3, §4, §5, §6

[13] = target: FGFR1 kinase (h) (Homo sapiens (Human), UniProt P11362); conditions: duplicate, read-out: % inhibition of control values, FGFR1 kinase (h)
Experimental: as §1, §2, §3, §4, §5, §6

[14] = target: ERK2 (h) (P42mapk) (Homo sapiens (Human), UniProt P28482); conditions: duplicate, read-out: % inhibition of control values, ERK2 (h) (P42mapk)
Experimental: as §1, §2, §3, §4, §5, §6

[15] = target: GSK3beta (h) (Homo sapiens (Human), UniProt P49841); conditions: for inhibition at 10 µM: duplicate, read-out: % inhibition of control values, GSK3beta (h); for Selectivity for GSK-3β compared to the other kinases of the panel: panel of 60 kinases, 10 μM
Experimental: as §1, §2, §3, §4, §5, §6

[16] = target: PKCalpha (h) (Homo sapiens (Human), UniProt P17252); conditions: duplicate, read-out: % inhibition of control values, PKCalpha (h)
Experimental: as §1, §2, §3, §4, §5, §6

[17] = target: p38delta kinase (h) (Homo sapiens (Human), UniProt O15264); conditions: duplicate, read-out: % inhibition of control values, p38delta kinase (h)
Experimental: as §1, §2, §3, §4, §5, §6

[18] = target: CK1alpha (h) (Homo sapiens (Human), UniProt P48729); conditions: duplicate, read-out: % inhibition of control values, CK1alpha (h)
Experimental: as §1, §2, §3, §4, §5, §6

[19] = target: AurB/Aur1 kinase (h) (Homo sapiens (Human), UniProt Q96GD4); conditions: duplicate, read-out: % inhibition of control values, AurB/Aur1 kinase (h)
Experimental: as §1, §2, §3, §4, §5, §6

[20] = target: NEK7 (h) (Homo sapiens (Human), UniProt Q8TDX7); conditions: duplicate, read-out: % inhibition of control values, NEK7 (h)
Sequence of NEK7 (h) (Q8TDX7 whole entry): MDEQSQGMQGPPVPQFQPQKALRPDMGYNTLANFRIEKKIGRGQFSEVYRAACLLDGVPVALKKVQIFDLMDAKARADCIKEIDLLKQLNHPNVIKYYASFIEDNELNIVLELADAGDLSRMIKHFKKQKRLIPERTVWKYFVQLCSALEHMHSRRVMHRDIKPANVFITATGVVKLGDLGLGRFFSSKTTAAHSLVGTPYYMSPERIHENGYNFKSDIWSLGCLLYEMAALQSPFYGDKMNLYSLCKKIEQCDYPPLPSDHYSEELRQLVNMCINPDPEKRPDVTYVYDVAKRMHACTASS
Experimental: as §1, §2, §3, §4, §5, §6

[21] = target: CHK1 (h) (Homo sapiens (Human), UniProt O14757); conditions: duplicate, read-out: % inhibition of control values, CHK1 (h)
Experimental: as §1, §2, §3, §4, §5, §6

[22] = target: HGK (h) (MAP4K4) (Homo sapiens (Human), UniProt O95819); conditions: duplicate, read-out: % inhibition of control values, HGK (h) (MAP4K4)
Sequence of HGK (h) (MAP4K4) (O95819 whole entry): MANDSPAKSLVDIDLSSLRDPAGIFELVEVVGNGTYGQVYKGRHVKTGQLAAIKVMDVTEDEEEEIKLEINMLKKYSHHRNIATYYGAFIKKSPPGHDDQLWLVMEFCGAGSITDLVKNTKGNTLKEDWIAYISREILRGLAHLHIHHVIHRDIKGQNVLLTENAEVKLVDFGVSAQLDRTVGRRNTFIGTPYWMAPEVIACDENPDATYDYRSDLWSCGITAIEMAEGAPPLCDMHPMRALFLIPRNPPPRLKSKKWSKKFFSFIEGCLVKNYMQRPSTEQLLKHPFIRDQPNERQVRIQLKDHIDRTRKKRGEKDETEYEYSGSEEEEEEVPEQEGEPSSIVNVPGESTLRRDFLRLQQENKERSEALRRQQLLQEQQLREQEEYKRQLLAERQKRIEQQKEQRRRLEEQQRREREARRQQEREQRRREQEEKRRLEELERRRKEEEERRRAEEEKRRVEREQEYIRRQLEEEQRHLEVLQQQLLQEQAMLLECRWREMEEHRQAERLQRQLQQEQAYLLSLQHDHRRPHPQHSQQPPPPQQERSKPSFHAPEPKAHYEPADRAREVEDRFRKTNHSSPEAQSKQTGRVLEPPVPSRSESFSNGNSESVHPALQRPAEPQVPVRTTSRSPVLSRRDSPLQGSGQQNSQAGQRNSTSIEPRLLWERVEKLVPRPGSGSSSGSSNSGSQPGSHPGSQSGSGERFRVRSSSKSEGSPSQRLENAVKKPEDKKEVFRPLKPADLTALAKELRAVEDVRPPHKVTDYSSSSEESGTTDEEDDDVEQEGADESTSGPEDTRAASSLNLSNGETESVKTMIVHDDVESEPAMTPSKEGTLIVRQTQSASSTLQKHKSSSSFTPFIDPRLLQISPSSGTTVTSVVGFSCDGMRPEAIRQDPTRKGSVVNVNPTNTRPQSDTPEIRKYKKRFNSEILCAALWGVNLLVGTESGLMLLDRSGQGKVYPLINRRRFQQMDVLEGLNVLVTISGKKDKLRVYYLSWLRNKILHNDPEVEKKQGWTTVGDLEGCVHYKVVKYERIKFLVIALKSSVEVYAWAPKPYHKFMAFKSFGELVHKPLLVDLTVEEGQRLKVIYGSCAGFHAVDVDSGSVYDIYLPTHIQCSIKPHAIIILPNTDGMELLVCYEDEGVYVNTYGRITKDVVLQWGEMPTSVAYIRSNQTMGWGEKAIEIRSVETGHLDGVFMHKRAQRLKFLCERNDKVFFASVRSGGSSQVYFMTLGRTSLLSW
Experimental: as §1, §2, §3, §4, §5, §6

[23] = target: TRKA (h) (Homo sapiens (Human), UniProt P04629); conditions: duplicate, read-out: % inhibition of control values, TRKA (h)
Sequence of TRKA (h) (P04629 33-796): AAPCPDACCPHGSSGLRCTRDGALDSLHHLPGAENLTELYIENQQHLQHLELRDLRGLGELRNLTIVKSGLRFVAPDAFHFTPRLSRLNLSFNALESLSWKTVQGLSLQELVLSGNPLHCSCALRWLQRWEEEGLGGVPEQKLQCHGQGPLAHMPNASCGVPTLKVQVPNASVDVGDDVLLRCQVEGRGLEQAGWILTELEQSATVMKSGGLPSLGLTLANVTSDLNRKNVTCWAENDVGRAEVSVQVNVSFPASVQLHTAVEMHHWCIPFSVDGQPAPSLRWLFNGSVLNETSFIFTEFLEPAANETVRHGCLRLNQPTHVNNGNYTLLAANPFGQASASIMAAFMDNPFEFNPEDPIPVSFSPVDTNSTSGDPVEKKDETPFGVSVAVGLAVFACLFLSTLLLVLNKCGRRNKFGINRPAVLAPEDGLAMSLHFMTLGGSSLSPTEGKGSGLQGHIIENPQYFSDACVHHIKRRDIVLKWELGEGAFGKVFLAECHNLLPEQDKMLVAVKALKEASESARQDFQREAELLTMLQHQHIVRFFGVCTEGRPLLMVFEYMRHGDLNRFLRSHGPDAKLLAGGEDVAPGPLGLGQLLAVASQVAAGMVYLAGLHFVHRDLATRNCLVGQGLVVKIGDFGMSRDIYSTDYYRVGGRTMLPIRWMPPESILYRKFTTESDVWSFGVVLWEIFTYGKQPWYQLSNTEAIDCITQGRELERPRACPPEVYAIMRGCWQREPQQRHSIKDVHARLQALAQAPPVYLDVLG
Experimental: as §1, §2, §3, §4, §5, §6

[24] = target: p38alpha kinase (h) (Homo sapiens (Human), UniProt Q16539); conditions: duplicate, read-out: % inhibition of control values, p38alpha kinase (h)
Experimental: as §1, §2, §3, §4, §5, §6

[25] = target: MNK2 (h) (Homo sapiens (Human), UniProt Q9HBH9); conditions: duplicate, read-out: % inhibition of control values, MNK2 (h)
Experimental: as §1, §2, §3, §4, §5, §6

| Compound | inhibition at 10 µM [1] | inhibition at 10 µM [2] | inhibition at 10 µM [3] | inhibition at 10 µM [4] | inhibition at 10 µM [5] | inhibition at 10 µM [6] | inhibition at 10 µM [7] | inhibition at 10 µM [8] | inhibition at 10 µM [9] | inhibition at 10 µM [10] | inhibition at 10 µM [11] | inhibition at 10 µM [12] | inhibition at 10 µM [13] | inhibition at 10 µM [14] | inhibition at 10 µM [15] | Selectivity for GSK-3β compared to the other kinases of the panel [15] | inhibition at 10 µM [16] | inhibition at 10 µM [17] | inhibition at 10 µM [18] | inhibition at 10 µM [19] | other results |
| --- | --- | --- | --- | --- | --- | --- | --- | --- | --- | --- | --- | --- | --- | --- | --- | --- | --- | --- | --- | --- | --- |
| COc1ccc2[nH]nc(C(=O)NCC3CCN(Cc4ccc(C(=O)O)o4)CC3)c2c1 [Compound 24, 5-{[4-({[(5-Methoxy-1H-indazol-3-yl)carbonyl]amino}methyl)piperidin-1-yl]methyl}furan-2-carboxylic acid] | 0% | 22% | 16% | 4% | 0% | 0% | 3% | 3% | 0% | 0% | 11% | 2% | 0% | 35% | 94% | good selectivity profile | 0% | 4% | 0% | 0% | inhibition at 10 µM [20]: 3%; inhibition at 10 µM [21]: 0%; inhibition at 10 µM [22]: 19%; inhibition at 10 µM [23]: 1%; inhibition at 10 µM [24]: 0%; inhibition at 10 µM [25]: 0% |
| COc1ccncc1-c1ccc2[nH]nc(C(=O)NCC3CCN(Cc4ccc(C(=O)O)o4)CC3)c2c1 [Compound 21, 5-({4-[({[5-(4-Methoxypyridin-3-yl)-1H-indazol-3-yl]carbonyl}amino)methyl]piperidin-1-yl}methyl)furan-2-carboxylic acid formate] | 0% | 81% | 98% | 0% | 3% | 21% | 10% | 5% | 0% | 2% | 13% | 5% | 13% | 89% | 96% | good affinity to GSK-3β when compared to most of other kinases of the same family | 20% | 35% | 2% | 10% | inhibition at 10 µM [20]: 5%; inhibition at 10 µM [21]: 1%; inhibition at 10 µM [22]: 99%; inhibition at 10 µM [23]: 4%; inhibition at 10 µM [24]: 1%; inhibition at 10 µM [25]: 6% |
| COc1ccc2[nH]nc(C(=O)NCC3CCN(CCc4ccc(O)cc4)CC3)c2c1 [Compound 1, N-({1-[2-(4-hydroxyphenyl)ethyl]-piperidin-4-yl}methyl)-5-methoxy-1H-indazole-3-carboxamide] | 9% | 35% | 30% | 2% | 0% | 4% | 13% | 4% | 7% | 0% | 14% | 0% | 6% | 33% | 92% | good selectivity profile | 8% | 12% | 15% | 11% | inhibition at 10 µM [20]: 9%; inhibition at 10 µM [21]: 12%; inhibition at 10 µM [22]: 17%; inhibition at 10 µM [23]: 10%; inhibition at 10 µM [24]: 0%; inhibition at 10 µM [25]: 1% |
